Measurements taken from PubChem BioAssay (NCI).
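Step 1: Grow cells in 96-well plates. Step 2: Expose to compound for 48 hours at 5 concentrations. Step 3: Interpolate endpoints linearly; if unreached, use highest concentration. At the GI50, growth is halved. Definition used: TGI = concentration required for complete inhibition of growth.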

Columns and labels:
Assay in all cases: NCI tumour cell line growth inhibition, 48 h
[1] = system: SN12C renal
[2] = system: 786-0 renal
[3] = system: OVCAR-4 ovarian
[4] = system: HOP-92 NSCLC
[5] = system: A549 NSCLC
[6] = system: SK-MEL-2 melanoma
[7] = system: SF-539 CNS
[8] = system: RXF 393 renal
[9] = system: HS 578T breast
[10] = system: M14 melanoma
[11] = system: MDA-MB-468 breast
[12] = system: HT29 colon
[13] = system: OVCAR-8 ovarian
[14] = system: PC-3 prostate
[15] = system: MOLT-4 leukemia
[16] = system: MCF7 breast
[17] = system: NCI-H226 lung
[18] = system: SK-MEL-5 melanoma
[19] = system: LOX IMVI melanoma
[20] = system: NCI-H23 lung
[21] = system: OVCAR-5 ovarian
[22] = system: NCI-H522 lung
[23] = system: IGROV1 ovarian
[24] = system: NCI/ADR-RES ovarian
[25] = system: BT-549 breast
[26] = system: MDA-MB-435
[27] = system: MALME-3M melanoma
[28] = system: CCRF-CEM leukemia
[29] = system: CAKI-1 renal
[30] = system: OVCAR-3 ovarian
[31] = system: SF-295 CNS
[32] = system: NCI-H460 lung
[33] = system: HCT-15 colon
[34] = system: ACHN renal
[35] = system: SR leukemia
[36] = system: U251 CNS
[37] = system: RPMI-8226 leukemia
[38] = system: TK-10 renal
[39] = system: SF-268 CNS
[40] = system: HL-60(TB) leukemia
[41] = system: MDA-MB-231 breast
[42] = system: SK-MEL-28 melanoma
[43] = system: UACC-62 melanoma
[44] = system: UO-31 renal
[45] = system: DU-145 prostate
[46] = system: UACC-257 melanoma
[47] = system: SK-OV-3 ovarian
[48] = system: HOP-62 NSCLC
[49] = system: HCT-116 colon
[50] = system: SNB-75 CNS
[51] = system: SNB-19 CNS
[52] = system: EKVX NSCLC
[53] = system: HCC-2998 colon
[54] = system: COLO 205 colon
[55] = system: A498 renal

COc1ccc2c(c1)c(-c1cc(N)n3nc(-c4c[nH]c5ccccc45)cc3n1)cn2C
GI50 [1]: 1.87 µM | TGI [1]: 3.81 µM | GI50 [2]: 1.61 µM | TGI [2]: 3 µM | GI50 [3]: 2.42 µM | TGI [3]: 5.93 µM | GI50 [4]: 1.87 µM | TGI [4]: 3.86 µM | GI50 [5]: 1.86 µM | TGI [5]: 3.7 µM | GI50 [6]: 1.86 µM | TGI [6]: 3.96 µM | GI50 [7]: 1.63 µM | TGI [7]: 2.98 µM | GI50 [8]: 1.5 µM | TGI [8]: 2.9 µM | GI50 [9]: 3.11 µM | TGI [9]: 17.6 µM | GI50 [10]: 1.72 µM | TGI [10]: 3.25 µM | GI50 [11]: 1.36 µM | TGI [11]: 2.69 µM | GI50 [12]: 1.77 µM | TGI [12]: 3.47 µM | GI50 [13]: 2.05 µM | TGI [13]: 4.77 µM | GI50 [14]: 2.56 µM | TGI [14]: 8.61 µM | GI50 [15]: 2.05 µM | TGI [15]: 5.73 µM | GI50 [16]: 1.68 µM | TGI [16]: 3.35 µM | GI50 [17]: 2.13 µM | TGI [17]: 5.11 µM | GI50 [18]: 1.68 µM | TGI [18]: 3.04 µM | GI50 [19]: 1.68 µM | TGI [19]: 3.04 µM | GI50 [20]: 1.72 µM | TGI [20]: 3.39 µM | GI50 [21]: 2.05 µM | TGI [21]: 4.08 µM | GI50 [22]: 1.78 µM | TGI [22]: 3.5 µM | GI50 [23]: 2.03 µM | TGI [23]: 3.88 µM | GI50 [24]: 2.08 µM | TGI [24]: 5.07 µM | GI50 [25]: 12.8 µM | TGI [25]: 25.6 µM | GI50 [26]: 1.83 µM | TGI [26]: 3.54 µM | GI50 [27]: 1.79 µM | TGI [27]: 3.18 µM | GI50 [28]: 2.14 µM | TGI [28]: 5.42 µM | GI50 [29]: 1.82 µM | TGI [29]: 3.52 µM | GI50 [30]: 2.02 µM | TGI [30]: 4.28 µM | GI50 [31]: 1.58 µM | TGI [31]: 3.01 µM | GI50 [32]: 2.23 µM | TGI [32]: 5.03 µM | GI50 [33]: 1.31 µM | TGI [33]: 2.75 µM | GI50 [34]: 1.7 µM | TGI [34]: 3.1 µM | GI50 [35]: 1.43 µM | TGI [35]: 6.4 µM | GI50 [36]: 1.64 µM | TGI [36]: 3.21 µM | GI50 [37]: 2.37 µM | TGI [37]: 5.74 µM | GI50 [38]: 1.76 µM | TGI [38]: 3.34 µM | GI50 [39]: 2.35 µM | TGI [39]: 5.48 µM | GI50 [40]: 1.76 µM | TGI [40]: 3.78 µM | GI50 [41]: 2.07 µM | TGI [41]: 3.65 µM | GI50 [42]: 1.73 µM | TGI [42]: 3.11 µM | GI50 [43]: 1.8 µM | TGI [43]: 3.2 µM | GI50 [44]: 1.61 µM | TGI [44]: 3.12 µM | GI50 [45]: 3.29 µM | TGI [45]: 10.2 µM | GI50 [46]: 1.84 µM | TGI [46]: 3.43 µM | GI50 [47]: 2.58 µM | TGI [47]: 6.43 µM | GI50 [48]: 2.02 µM | TGI [48]: 3.92 µM | GI50 [49]: 1.72 µM | TGI [49]: 3.09 µM | GI50 [50]: 1.76 µM | TGI [50]: 3.8 µM | GI50 [51]: 2.61 µM | TGI [51]: 6.31 µM | GI50 [52]: 1.7 µM | TGI [52]: 3.63 µM | GI50 [53]: 1.63 µM | TGI [53]: 3.04 µM | GI50 [54]: 2.02 µM | TGI [54]: 3.83 µM | GI50 [55]: 14 µM | TGI [55]: 27.6 µM
